# Laboratory results reported in patent US9539301B2, “Melanotropin ligands for skin care” (THE ARIZONA BOARD OF REGENTS ON BEHALF OF THE UNIVERSITY OF …, priority 2011, dated 2017).
# Entries after “also recorded” stand apart in the source; their conditions may differ. Square brackets hold non-standard residues; d marks the D form. Peptide text beside a SMILES is read from it. d2Nal = N[C@H](Cc1ccc2ccccc2c1)C(=O)O; Nle = CCCC[C@H](N)C(=O)O
# Columns and labels:
# MC1R = MC1R (Homo sapiens, UniProt Q01726); settings: cited from earlier work
# MC5R = MC5R (Homo sapiens, UniProt P33032); settings: footnote: value denotes an EC50; read-out: EC50 MC5R (values derived from literature); cited from earlier work
# MC4R = MC4R (Homo sapiens, UniProt P32245); settings: footnote: value denotes an EC50; read-out: EC50 MC4R (values derived from literature); cited from earlier work
# A375/MC1R cells = test: In vitro MC1R probe uptake study (fluorescence microscopy); type: cell-based, human
# Procedure: Samples were viewed using an Axio Observer Z1 inverted fluorescence microscope (Carl Zeiss, Inc, Germany) using 40×/1.3NA oil immersion objectives through a narrow band Cy5 filter. Cy5 fluorescence images were prepared with a DIC overlay image using Axiovision 4.6 software (Carl Zeiss, Inc, Germany).
# To study uptake of the MC1R probe onto and into cells, MC1RL-800 probe was incubated with live cells and images were acquired at different time-points after incubation using an inverted microscope.
# [1] = mouse, in vivo, iv, 5 nmol/kg
# Procedure: (§1) Tumors, kidneys and liver were excised, rinsed with PBS, blotted dry, and then imaged ex vivo with Optix-MX3 as described above. Images were analyzed as described above.
# (§2) The pharmacokinetics of probe uptake and clearance was also characterized using a three-compartment mathematical model, which includes tumor, kidney and mouse volumes, and assumes mass conservation of the ligand. This model was used to account for the interference of the tumor ligand release in the uptake and clearance dynamics of blood and kidneys.
# [2] = type: physicochemical; settings: pH 7.4
# Procedure: The log of the octanol-water partition coefficient at pH 7.4 (log D7.4) was determined by miniaturised shake flask assay. Briefly, (200 µL to 1 mL) n-octanol (Sigam) was added to a solution of the test compound prepared in PBS (25 mM NaH2PO4/Na2HPO4 buffer, pH 7.4, Sigma, HPLC grade). Then, three different ratios of octanol to PBS buffer were prepared. The mixture was stirred in a vortex mixer at room temperature for 1 min and then two layers were separated by centrifuge. The concentration of compound in each layer was determined by HPLC (Poroshell 120 EC-C18 column) using (26% acetonitrile in water, 0.1% TFA) in 280 nm channel. All sample injections were performed 3 times, and the results were averaged to yield the final values.
# To measure lipophilicity of the probe, log D (distribution co-efficient) was determined.
# [3] = mouse, in vivo
# Procedure: as §1, §2
# [4] = test system: A375/MC1R and A375 xenograft tumors; test: Tumor xenograft fluorescence imaging, in vivo tumor targeting and blocking; set-up: species or system nu/nu mice
# Procedure: Female nu/nu mice 6-8 weeks old (Harlan Sprague Dawley, Inc., Indianapolis, Ind.) were injected subcutaneously (s.c.) with 1×10^6 MC1R expressing A375 cells in the right and the parental one in the left flank. Tumor volume was determined with calipers using the formula: volume=(length×width^2)/2. Once tumors reached 500-800 mm^3, 1 nmol/kg-30 nmol/kg of MC1R imaging probe in 100 µL sterile saline was injected into the tail vein. In vivo fluorescence images were acquired using the Optix-MX3 (Advance Research Technologies, Inc. a subsidiary of SoftScan Healthcare Group, Montreal, Canada). Animals were positioned on a heating pad and anesthetized using isoflurane (flow 2-2.5 l/min). Fluorescence images were acquired using a scan resolution of 1.5 mm and a 790-nm pulsed laser diode with 40 MHz frequency and 12-ns time window. Images were analyzed using Optix-MX3 Optiview Software (version 3.01). Autofluorescence background was subtracted by determining the mean tumor fluorescence signal prior to injection, then mean normalized intensity values were obtained within a ROI on these images.
# Tumors were excised and center slice of each tumor was imaged using both Optix-MX3 (as described above) and IVIS 200 imaging system (Caliper LifeSciences, MA). For IVIS 200 acquisitions, the standard ICG excitation and emission filter set was used for imaging. After imaging, the slices were fixed in formalin and embedded in paraffin for histology. Formalin fixed sections (5 µm) were stained with hematoxylin and eosin (H&E). […]
# To investigate tumor targeting of the probe in vivo, bilateral subcutaneous xenograft tumors were established with A375/MC1R engineered cells in the right flank, and A375 parental cells with relatively low MC1R expression in the left flank. After tumor growth to approximately 500-800 mm^3, MC1RL-800 was injected intravenously and fluorescence accumulation was monitored over time. […] IHC staining confirmed the high and low MC1R expression in the two tumor types, and areas with the highest IHC staining corresponded to areas with the highest fluorescence signal (FIG. 27B).
# [5] = A375/MC1R cells, after incubation
# [6] = co-injection 0.25 μg NDP-a-MSH with 5 nmol/kg probe, 2 hr
# Sequence of MC1R (Q01726 whole entry): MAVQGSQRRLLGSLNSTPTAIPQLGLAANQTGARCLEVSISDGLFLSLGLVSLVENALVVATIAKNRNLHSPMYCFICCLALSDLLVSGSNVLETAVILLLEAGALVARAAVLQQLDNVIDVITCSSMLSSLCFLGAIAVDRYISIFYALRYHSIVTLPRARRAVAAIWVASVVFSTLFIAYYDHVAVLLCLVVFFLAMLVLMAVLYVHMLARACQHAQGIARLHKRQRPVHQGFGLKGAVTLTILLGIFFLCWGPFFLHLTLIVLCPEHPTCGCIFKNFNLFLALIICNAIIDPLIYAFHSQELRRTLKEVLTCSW
# Sequence of MC4R (P32245 whole entry): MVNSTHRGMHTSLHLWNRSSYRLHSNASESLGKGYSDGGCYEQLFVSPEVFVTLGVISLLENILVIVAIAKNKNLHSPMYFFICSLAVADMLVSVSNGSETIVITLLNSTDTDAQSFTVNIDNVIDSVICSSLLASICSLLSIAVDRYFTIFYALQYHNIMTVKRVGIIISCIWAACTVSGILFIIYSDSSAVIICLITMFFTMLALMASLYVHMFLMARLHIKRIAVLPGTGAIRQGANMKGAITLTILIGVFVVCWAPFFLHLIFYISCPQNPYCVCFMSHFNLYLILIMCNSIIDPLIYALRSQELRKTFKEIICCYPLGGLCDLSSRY
# Sequence of MC5R (P33032 whole entry): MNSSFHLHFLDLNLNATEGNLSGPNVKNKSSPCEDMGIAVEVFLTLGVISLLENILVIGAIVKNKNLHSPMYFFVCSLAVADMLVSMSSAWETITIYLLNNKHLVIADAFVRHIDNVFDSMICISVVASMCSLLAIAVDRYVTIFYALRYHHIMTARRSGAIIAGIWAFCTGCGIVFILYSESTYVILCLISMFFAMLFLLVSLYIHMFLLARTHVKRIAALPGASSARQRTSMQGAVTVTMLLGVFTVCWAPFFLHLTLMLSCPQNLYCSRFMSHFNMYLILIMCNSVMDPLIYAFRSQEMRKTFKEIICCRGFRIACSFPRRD
smiles,measurement,setting,value
"NC(=O)[C@H](Cc1c[nH]c2ccccc12)NC(=O)[C@H](CCCN=C(N)N)NC(=O)[C@@H](Cc1ccccc1)NC(=O)[C@H](Cc1cnc[nH]1)NC(=O)CCCc1ccccc1 [Compound 1, 4-phenylbutyryl-His-DPhe-Arg-Trp-NH2]",Ki,MC1R; read-out: Ki MC1R (values derived from literature),0.01 nM
"CCCC[C@H](NC(=O)[C@@H](NC(=O)[C@@H](N)Cc1ccc(O)cc1)C(C)C)C(=O)NCC(=O)N[C@@H](Cc1cnc[nH]1)C(=O)N[C@H](Cc1ccc2ccccc2c1)C(=O)N[C@@H](CCCNC(=N)N)C(=O)N[C@H](Cc1ccccc1)C(=O)N[C@@H](CC(=O)O)C(=O)N[C@@H](CCCNC(=N)N)C(=O)N[C@@H](Cc1ccccc1)C(=O)NCC(N)=O [Compound 7, H-Tyr-Val-Nle-Gly-His-DNal(2′)-Arg-DPhe-Asp-Arg-Phe-Gly-NH2] (H-YV[Nle]GH[d2Nal]R[dF]DRFG-NH2)",EC50,MC5R,3.3 nM
same,EC50,MC4R,20 nM
same,EC50,"MC1R; footnote: value denotes an EC50, read-out: EC50 MC1R (values derived from literature)",1.6 nM
"CC1(C)C(=CC=C2CCCC(C=CC3=[N+](CCCCCC(=O)NCCN4C(=O)CC(SCCC(=O)NCCCC[C@H](NC(=O)CNC(=O)[C@H](Cc5c[nH]c6ccccc56)NC(=O)[C@H](CCCNC(=N)N)NC(=O)[C@@H](Cc5ccccc5)NC(=O)[C@H](Cc5c[nH]cn5)NC(=O)CCCc5ccccc5)C(N)=O)C4=O)c4ccc(S(=O)(=O)[O-])cc4C3(C)C)=C2Oc2ccc(S(=O)(=O)O)cc2)N(CCCCS(=O)(=O)O)c2ccc(S(=O)(=O)O)cc21 (stereo partly drawn) [MC1RL-800, 4-phenylbutyryl-His-DPhe-Arg-Trp-Gly-Lys(Mpr-IR800CW)-NH2]",probe binding after blocking with NDP-α-MSH,A375/MC1R cells; 2 μM NDP-α-MSH added before probe,No attachment; also recorded: No binding or uptake
same,time at which binding of probe to cell surface is observed,A375/MC1R cells; [5],≤ 15 s
same,time of intracellular accumulation / internalization,A375/MC1R cells; [5],≤ 5 min
same,half-life,[1],~10 h
same,logD,[2],-2.96
same,accumulation in the liver,[3],did not accumulate
same,kidney signal relative to tumor,[3],2 fold
same,normalized fluorescence signal of A375 (low MC1R) tumors compared to A375/MC1R tumors,"[4]; 2 h post-injection, n=3",significantly lower
same,"decrease of probe fluorescence signal after blocking, A375/MC1R tumors",[4]; [6],1.54 fold
same,"decrease of probe fluorescence signal after blocking, A375 tumor",[4]; [6],1.4 fold
